Target: LYN (Homo sapiens, UniProt P07948)
Assay: chemical proteomics pulldown from cell lysate (c-bafetinib beads, competition with […] free drug)
Type: cell-based

LYN, sequence (P07948 2-512): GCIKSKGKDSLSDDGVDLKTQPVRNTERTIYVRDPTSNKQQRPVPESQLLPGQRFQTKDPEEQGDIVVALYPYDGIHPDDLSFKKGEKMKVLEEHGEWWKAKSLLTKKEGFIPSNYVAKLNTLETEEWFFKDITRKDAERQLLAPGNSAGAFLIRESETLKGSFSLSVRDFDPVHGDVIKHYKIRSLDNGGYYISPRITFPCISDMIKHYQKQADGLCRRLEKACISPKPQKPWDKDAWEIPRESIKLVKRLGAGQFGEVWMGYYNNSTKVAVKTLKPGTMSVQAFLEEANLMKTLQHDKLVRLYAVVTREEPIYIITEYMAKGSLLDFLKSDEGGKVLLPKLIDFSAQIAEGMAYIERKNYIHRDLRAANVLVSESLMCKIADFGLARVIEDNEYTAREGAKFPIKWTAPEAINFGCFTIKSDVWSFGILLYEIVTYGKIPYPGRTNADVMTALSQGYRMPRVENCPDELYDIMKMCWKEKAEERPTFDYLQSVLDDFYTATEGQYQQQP

## Cc1ccc(NC(=O)c2ccc(CN3CC[C@H](N(C)C)C3)c(C(F)(F)F)c2)cc1Nc1nccc(-c2cncnc2)n1 [bafetinib]
  chemical proteomics pulldown from cell lysate (c-bafetinib beads, competition wi): LYN and BTK have been identified with all four TKI in the present chemical proteomics screen

From paper PMC3795025, “A Target-Disease Network Model of Second-Generation BCR-ABL Inhibitor Action in Ph+ ALL” (PLoS ONE, 2013)
